Assays:
[1] = Specific surface area by BET-nitrogen adsorption analysis; assay type: physicochemical
Experimental: The specific surface area (SSA) is assessed with a Quantachrome NOVA touch 2LX. The N2 is used as measuring gas and BET method is used to evaluate SSA. The following setup has been used for the measurement: • Adsorbate: Nitrogen • Sample cell: 9 mm large bulb cell, long; Measurement is performed with the corresponding filler rod • Sample masses*: approximately ¾ of cell bulb • Degassing conditions: 960 min at 30° C. under vacuum (ramping 10° C./min) • Measured points of isotherm: 11 equidistant points in the range 0.05-0.30 p/p0** • Points analyzed using BET: 7equidistant points from whole range 0.05-0.20 p/p0 • Use data reduction adsorbate model: Yes (N2) • Bath thermal delay: at least 600 s • P0 Option: continuous (measured each 30 minutes) • Void volume mode: Helium measure • Equilibration time: 160 s • Equilibration timeout: 2400 s • Tolerance: 0.05 • * Used amount of sample depends on its SSA and other physical parameters. The real surface area of sample in measuring cell should be between 1 m^2/g and 20 m^2/g. • ** Points above or below this range can be measured.

[2] = Particle size distribution by LASER diffraction (Malvern Mastersizer 2000); assay type: physicochemical
Experimental: The particle size distribution (PSD) is determined with LASER diffraction analyzer Malvern Mastersizer 2000 which operates in size ranges from 0.02 μm to 2,000 μm. The wet dispersion is prepared from dry powder sample and added to the dispersion unit. Gained raw data are computed by software to PSD with the use of Mie theory. This method is based on Ph. Eur. Method 2.9.31 and USP <429>.

[3] = cited from earlier work

surface area [1]: 6.9 m^2/g
D90 [2]: 11.5 μm
SMILES: CC(=O)c1c(C)c2cnc(Nc3ccc(N4CCNCC4)cn3)nc2n(C2CCCC2)c1=O [Palbociclib]
solubility ([3]; above pH 4): reduces significantly
solubility in water ([3]; at or below pH 4): high-solubility compound
